Test results: PubChem BioAssay (NCI)
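Values below derive from 48-hour exposures of cells grown in 96-well plates, with endpoints linearly interpolated between the two concentrations bracketing the appropriate inhibition level. TGI: concentration producing complete growth inhibition.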

Columns and labels:
Assay in all cases: NCI anticancer screen, dose series, 48 h
SK-MEL-2 melanoma = system: SK-MEL-2 melanoma
HCC-2998 colon = system: HCC-2998 colon
MALME-3M melanoma = system: MALME-3M melanoma
OVCAR-8 ovarian = system: OVCAR-8 ovarian
COLO 205 colon = system: COLO 205 colon
CCRF-CEM leukemia = system: CCRF-CEM leukemia
UACC-62 melanoma = system: UACC-62 melanoma
SR leukemia = system: SR leukemia
NCI-H226 lung = system: NCI-H226 lung
HS 578T breast = system: HS 578T breast
NCI/ADR-RES ovarian = system: NCI/ADR-RES ovarian
MOLT-4 leukemia = system: MOLT-4 leukemia
SW-620 colon = system: SW-620 colon
MDA-N = system: MDA-N
RPMI-8226 leukemia = system: RPMI-8226 leukemia
HCT-116 colon = system: HCT-116 colon
RXF 393 renal = system: RXF 393 renal
UO-31 renal = system: UO-31 renal
HCT-15 colon = system: HCT-15 colon
SK-OV-3 ovarian = system: SK-OV-3 ovarian
K-562 leukemia = system: K-562 leukemia
SF-295 CNS = system: SF-295 CNS
SF-268 CNS = system: SF-268 CNS
A498 renal = system: A498 renal
NCI-H23 lung = system: NCI-H23 lung
SN12C renal = system: SN12C renal
HOP-62 NSCLC = system: HOP-62 NSCLC
EKVX NSCLC = system: EKVX NSCLC
NCI-H460 lung = system: NCI-H460 lung
ACHN renal = system: ACHN renal
MCF7 breast = system: MCF7 breast
DU-145 prostate = system: DU-145 prostate
786-0 renal = system: 786-0 renal
TK-10 renal = system: TK-10 renal
CAKI-1 renal = system: CAKI-1 renal
OVCAR-5 ovarian = system: OVCAR-5 ovarian
KM12 colon = system: KM12 colon
SNB-75 CNS = system: SNB-75 CNS
M14 melanoma = system: M14 melanoma
SK-MEL-28 melanoma = system: SK-MEL-28 melanoma
HL-60(TB) leukemia = system: HL-60(TB) leukemia
HOP-92 NSCLC = system: HOP-92 NSCLC
OVCAR-3 ovarian = system: OVCAR-3 ovarian
T-47D breast = system: T-47D breast
A549 NSCLC = system: A549 NSCLC
U251 CNS = system: U251 CNS
NCI-H522 lung = system: NCI-H522 lung
BT-549 breast = system: BT-549 breast
HT29 colon = system: HT29 colon
UACC-257 melanoma = system: UACC-257 melanoma
PC-3 prostate = system: PC-3 prostate
LOX IMVI melanoma = system: LOX IMVI melanoma
SK-MEL-5 melanoma = system: SK-MEL-5 melanoma
OVCAR-4 ovarian = system: OVCAR-4 ovarian
MDA-MB-231 breast = system: MDA-MB-231 breast
SNB-19 CNS = system: SNB-19 CNS
IGROV1 ovarian = system: IGROV1 ovarian
MDA-MB-435 = system: MDA-MB-435
SF-539 CNS = system: SF-539 CNS

C=C1CC2(CC(c3ccccc3C)OC(c3ccccc3C)C2)OC1=O (stereo unspecified)
TGI (SK-MEL-2 melanoma): 4.13 µM
TGI (HCC-2998 colon): 5.82 µM
TGI (MALME-3M melanoma): 3.29 µM
TGI (OVCAR-8 ovarian): 4.63 µM
TGI (COLO 205 colon): 3.68 µM
TGI (CCRF-CEM leukemia): 5.75 µM
TGI (UACC-62 melanoma): 3.23 µM
TGI (SR leukemia): > 26.8 µM
TGI (NCI-H226 lung): 18.7 µM
TGI (HS 578T breast): 5.43 µM
TGI (NCI/ADR-RES ovarian): 14.3 µM
TGI (MOLT-4 leukemia): 21.4 µM
TGI (SW-620 colon): 3.59 µM
TGI (MDA-N): 3.32 µM
TGI (RPMI-8226 leukemia): 4.12 µM
TGI (HCT-116 colon): 3.21 µM
TGI (RXF 393 renal): 3.88 µM
TGI (UO-31 renal): 11.3 µM
TGI (HCT-15 colon): 3.86 µM
TGI (SK-OV-3 ovarian): 24.2 µM
TGI (K-562 leukemia): 5.09 µM
TGI (SF-295 CNS): 29.4 µM
TGI (SF-268 CNS): 3.6 µM
TGI (A498 renal): 21.6 µM
TGI (NCI-H23 lung): 3.9 µM
TGI (SN12C renal): 4.42 µM
TGI (HOP-62 NSCLC): 26.8 µM
TGI (EKVX NSCLC): 30.1 µM
TGI (NCI-H460 lung): 14.2 µM
TGI (ACHN renal): 6.06 µM
TGI (MCF7 breast): 3.87 µM
TGI (DU-145 prostate): 24.6 µM
TGI (786-0 renal): 4.74 µM
TGI (TK-10 renal): 4.14 µM
TGI (CAKI-1 renal): 4.26 µM
TGI (OVCAR-5 ovarian): 26.5 µM
TGI (KM12 colon): 6.06 µM
TGI (SNB-75 CNS): 11.6 µM
TGI (M14 melanoma): 3.02 µM
TGI (SK-MEL-28 melanoma): 4.27 µM
TGI (HL-60(TB) leukemia): 11.6 µM
TGI (HOP-92 NSCLC): 3.18 µM
TGI (OVCAR-3 ovarian): 3.58 µM
TGI (T-47D breast): 3.21 µM
TGI (A549 NSCLC): 19.4 µM
TGI (U251 CNS): 25.9 µM
TGI (NCI-H522 lung): 3.23 µM
TGI (BT-549 breast): 4.09 µM
TGI (HT29 colon): 3.53 µM
TGI (UACC-257 melanoma): 3.66 µM
TGI (PC-3 prostate): 5.78 µM
TGI (LOX IMVI melanoma): 3.05 µM
TGI (SK-MEL-5 melanoma): 3.97 µM
TGI (OVCAR-4 ovarian): 5.49 µM
TGI (MDA-MB-231 breast): 3.17 µM
TGI (SNB-19 CNS): 30.8 µM
TGI (IGROV1 ovarian): 3.25 µM
TGI (MDA-MB-435): 3.13 µM
TGI (SF-539 CNS): 3.1 µM

CC1NCCC(CC(=O)O)C1CC(=O)O (stereo unspecified)
TGI (SK-MEL-2 melanoma): > 100 µM
TGI (HCC-2998 colon): > 100 µM
TGI (MALME-3M melanoma): > 100 µM
TGI (OVCAR-8 ovarian): > 100 µM
TGI (COLO 205 colon): > 100 µM
TGI (CCRF-CEM leukemia): > 100 µM
TGI (UACC-62 melanoma): > 100 µM
TGI (SR leukemia): > 100 µM
TGI (NCI-H226 lung): > 100 µM
TGI (HS 578T breast): > 100 µM
TGI (NCI/ADR-RES ovarian): > 100 µM
TGI (SW-620 colon): > 100 µM
TGI (MDA-N): > 100 µM
TGI (RPMI-8226 leukemia): > 100 µM
TGI (HCT-116 colon): > 100 µM
TGI (RXF 393 renal): > 100 µM
TGI (UO-31 renal): > 100 µM
TGI (HCT-15 colon): > 100 µM
TGI (SK-OV-3 ovarian): > 100 µM
TGI (K-562 leukemia): > 100 µM
TGI (SF-295 CNS): > 100 µM
TGI (SF-268 CNS): > 100 µM
TGI (A498 renal): > 100 µM
TGI (NCI-H23 lung): > 100 µM
TGI (SN12C renal): > 100 µM
TGI (HOP-62 NSCLC): > 100 µM
TGI (EKVX NSCLC): > 100 µM
TGI (NCI-H460 lung): > 100 µM
TGI (ACHN renal): > 100 µM
TGI (MCF7 breast): > 100 µM
TGI (DU-145 prostate): > 100 µM
TGI (786-0 renal): > 100 µM
TGI (TK-10 renal): > 100 µM
TGI (CAKI-1 renal): > 100 µM
TGI (OVCAR-5 ovarian): > 100 µM
TGI (KM12 colon): > 100 µM
TGI (SNB-75 CNS): > 100 µM
TGI (M14 melanoma): > 100 µM
TGI (SK-MEL-28 melanoma): > 100 µM
TGI (HL-60(TB) leukemia): > 100 µM
TGI (HOP-92 NSCLC): > 100 µM
TGI (OVCAR-3 ovarian): > 100 µM
TGI (T-47D breast): > 100 µM
TGI (A549 NSCLC): > 100 µM
TGI (U251 CNS): > 100 µM
TGI (NCI-H522 lung): > 100 µM
TGI (BT-549 breast): > 100 µM
TGI (HT29 colon): > 100 µM
TGI (UACC-257 melanoma): > 100 µM
TGI (PC-3 prostate): > 100 µM
TGI (LOX IMVI melanoma): > 100 µM
TGI (SK-MEL-5 melanoma): > 100 µM
TGI (OVCAR-4 ovarian): > 100 µM
TGI (MDA-MB-231 breast): > 100 µM
TGI (SNB-19 CNS): > 100 µM
TGI (IGROV1 ovarian): > 100 µM
TGI (MDA-MB-435): > 100 µM
